Laboratory results published in US20120071464A1, “METHOD OF TREATMENT OF OBSESSIVE COMPULSIVE DISORDER WITH ONDANSETRON” (priority 2009, published 2012).
“And” between values parts separate entries of the source, which are not always exact repeats. Identical values can stand only once. “Also recorded” adds a separate entry of the source.

What was measured:
[1] = tested on: OCD patients resistant to SRI plus antipsychotic therapy; assay: Ondansetron augmentation therapy (SRI and antipsychotic), single-blind 12-week study; assay type: in vivo, human
Source text: Between March 2008 and November 2008, fourteen adults aged 18 to 55 were enrolled in a study at the Institute for Neuroscience, Florence, Italy. […] All diagnoses were established utilizing a structured interview, the Structured Clinical Interview for DSM IV Axis I Disorders (SCID I). (See Spitzer, R. L. et al. ARCH GEN PSYCHIATRY 49(8):624-649) Potential subjects with a history of alcohol or substance abuse, current severe depressive symptoms, bipolar disorder, panic disorder, schizophrenia, other psychiatric conditions, heart disease, arrhythmia, liver problems (including cirrhosis), seizures, glaucoma or serious medical disease were excluded. Patients with hoarding as their only OCD symptom and women of childbearing potential not using a medically acceptable contraceptive method were also excluded. After being fully informed about the study and signing an informed consent approved by the Internal Institutional Review Board, subjects were administered an ondansetron hydrochloride (oral solution) dosage of 0.25 mg twice a day for 6 weeks, followed by 0.5 mg twice a day for 6 weeks for a total observation period of 12 weeks. […] The Y-BOCS, Montgomery-Asberg Depression Rating Scale (MADRS) (see Montgomery, S. A., BR J PSYCHIATRY 1979; 134:382-389) was administered at screening and baseline, and these assessments were repeated at every follow-up visit at 2-week intervals, along with the Clinical Global Impressions-Improvement (CGI-I) rating (see Guy, W. ECDEU Assessment Manual for Psychopharmacology. US Dept Health, Education, and Welfare publication (ADM) 76-338. Rockville, Md.: National Institute of Mental Health; 1976:218-222) and an unpublished Drug Effect scale. The Drug Effect scale asked subjects to rate “How anxious are you now?” on a scale of zero (not at all) to 10 (“the most anxious I have ever been”). Similar rating questions have been “Do you experience appearance or increment in frequency of headaches?”, “Do you experience appearance or increment in frequency of headaches fatigue?” and “Do you experience appearance or increment in frequency of headaches constipation” and so on regarding other common ondansetron side effects (diarrhea, urinary retention, itching, and dizziness). Furthermore, each evening during the first week of study medication, a study psychiatrist called the subject to ask for major or unexpected collateral effects (as chest pain, an unexplained skin rash, or tremors.). […] (See […]. et al., Am J PSYCHIATRY 1997; 154:320-321) Subjects with MADRS scores ≧18 were excluded. Ratings were administered by an investigator who was blind to the treatment condition of the patients. Given the small sample size, mean changes from baseline in rating scales were tested with a non-parametric method based on ranks (Wilcoxon signed rank test), using a two-tailed significance level of p≦0.05. Relationships among rated and demographical variables were tested with Spearman's rank correlation tests, using a two-tailed significance level of p≦0.05. Age, baseline OCD severity, and depressive symptoms were controlled for by stratifying through the Mantel-Haenszel χ2 test. Body mass index (BMI) was adjusted given the differences of ondansetron bioavailability according to BMI.

[2] = tested on: mesenteric bed or the nerves in the heart; conditions: animal studies; cited from earlier work
[3] = tested on: patients with treatment-resistant OCD under stable treatment with SRIs; assay: Ondansetron augmentation therapy (SRI), single-blind 12-week study with 4-week discontinuation follow-up; assay type: in vivo, human; design: average reduction in CGI scores for the whole group / YBOCS % Reduction, 6 Weeks: concentration or dose not given beside the values; conditions: for worsening of YBOCS symptoms during the discontinuation phase: after Week 12
Protocol: Twenty-one patients with a DSM-IV diagnosis of treatment-resistant OCD, under stable treatment with SRIs approved by the FDA for OCD therapy, received 12 weeks of single-blind ondansetron augmentation initiated at a dose of 0.25 mg twice daily for 2 weeks, and titrated to 0.5 mg twice daily for 10 weeks. Patients were rated every two weeks using the Yale Brown Obsessive Compulsive Scale (YBOCS) and Clinical Global Impressions Scale (CGI). Treatment-resistant patients were defined as having completed an adequate trial of SRIs at a moderate to high dose for at least 12 weeks and still having a YBOCS severity of >24, and CGI-Severity of ≧4. Treatment response was defined as an additional 25% reduction in YBOCS score from YBOCS score at the initiation of ondansetron augmentation, an end of treatment (EOT) period YBOCS of ≦24, and CGI-Improvement (CGI-I) of ≦2. Additionally, ondansetron was discontinued after 12 weeks and patients were followed up for another 4 weeks for relapse in YBOCs symptoms.

[4] = end of 6th week, non responders (n = 5)
[5] = end of 6th week, responders (n = 9)
[6] = end of 12th week, non responders (n = 5)
[7] = end of 12th week, responders (n = 9)
[8] = individual patients 1-14, versus baseline
[9] = end of 6th week, non responders (n = 9)
[10] = end of 12th week, non responders (n = 9)
[11] = end of 12th week, responders (n = 12)
[12] = individual patients, versus baseline
[13] = individual patients, EC: week 1 score carried forward

## Cc1nccn1CC1CCc2c(c3ccccc3n2C)C1=O (stereo not drawn) [ondansetron]
[1]; 6 weeks, n = 14
  average YBOCS score change of the whole group (decrease): 16%
[1]; 12th week, with citalopram 60 mg/day and risperidone 2 mg/day
  YBOCS score decrease, Patient 11: 35%
[1]; 12 weeks, six of seven patients
  responders to ondansetron among patients on risperidone: 86%
[1]; 12 weeks, up to 1 mg/day
  side effects throughout the study (severity): mild to moderate
[1]; end of 6th week, 3/14 patients
  patients meeting YBOCS criteria for treatment response (reduction >25%): 21.4%
[1]; [4]
  CGI (mean, SD): 4.6 (1.5)
  MADRS (mean, SD): 8.0 (4.0)
  YBOCS (mean, SD): 22.8 (3.8)
[1]; [5]
  CGI (mean, SD): 3.4 (1.6)
  MADRS (mean, SD): 6.7 (2.4)
[1]; end of 6th week, responders (n = 9), 0.25 mg twice a day added to SRI + antipsychotic
  YBOCS (mean, SD): 22.6 (4.2)
[1]; [6]
  CGI (mean, SD): 4.8 (1.3)
  MADRS (mean, SD): 7.6 (3.8)
  YBOCS (mean, SD): 21.4 (6.1)
[1]; [7]
  CGI (mean, SD): 2.3 (1.2)
  MADRS (mean, SD): 6.8 (2.0)
[1]; end of 12th week, responders (n = 9), 0.5 mg twice a day in weeks 7-12
  YBOCS (mean, SD): 20.8 (4.1)
[1]; end of 12 weeks, n = 14
  average YBOCS change score of the whole group (decrease): 23% and 23.2%
[1]; first 2 weeks of treatment
  decreased appetite (number of patients): two
  headache (number of patients): two
[1]; fourteen subjects
  significant side effects: None of the fourteen subjects experienced significant side effects or worsening of OC symptoms; also recorded: None of the subjects experienced significant or lasting side effects
[1]; from baseline to the end of week 1
  Mean MADRS scores: did not change significantly
[1]; individual patients 1-14
  YBOCS Score, 6 Weeks: 25 (3×) and 28 and 17 (2×) and 16 and 27 and 26 and 24 (3×) and 19 and 21
  YBOCS Score, 12 Weeks: 25 (3×) and 15 (2×) and 14 and 30 and 23 and 22 (2×) and 24 and 18 and 17 and 20
[1]; [8]
  Percent Reduction at 6 weeks (YBOCS): 3.84% and 28.57% and 20.00% (2×) and 15.00% and 12.90% and 21.20% and 31.42% and 27.27% and 20.80% and 4.54% and 10.52% and .00% and 19.32%
  Percent Reduction at 12 weeks (YBOCS): 3.84% and 28.57% (2×) and 25.00% (2×) and 30.00% and 3.22% and 27.27% (2×) and 37.14% and 22.72% and 21.05% and 16.60% and 29.03%
[1]; lasted only one night
  mild increase in anxiety levels (number of patients): One
[1]; through week 12 (FIG. 4)
  Clinical Global Impressions-Improvement (CGI-I) scores: improved concurrent with improvement in the YBOCS scores
[1]; throughout the study
  mean pulse rate or mean blood pressure: No change
[1]; two responder patients
  course after discontinuation of the ondansetron: experienced worsening
[2]
  effect on the mesenteric bed or the nerves in the heart: did not appear to have effect on the mesenteric bed or the nerves in the heart
[3]; 12 weeks, up to 0.5 mg twice daily
  tolerability of treatment: well tolerated
[3]; All Patients, week 2
  % Decrease in YBOCS Scores: 12.66%
  Avg YBOCS Scores: 26.29
[3]; All Patients, week 4
  % Decrease in YBOCS Scores: 16.93%
  Avg YBOCS Scores: 25
[3]; All Patients, week 6
  % Decrease in YBOCS Scores: 19.3%
  Avg YBOCS Scores: 24.29
[3]; All Patients, week 8
  % Decrease in YBOCS Scores: 21.99%
  Avg YBOCS Scores: 23.48
[3]; All Patients, week 10
  % Decrease in YBOCS Scores: 24.21%
  Avg YBOCS Scores: 22.81
[3]; All Patients, week 12
  % Decrease in YBOCS Scores: 26.27%
  Avg YBOCS Scores: 22.19
[3]; All Patients, week 14 (ondansetron discontinued after week 12)
  Avg YBOCS Scores: 24.95
[3]; All Patients, week 16 (ondansetron discontinued after week 12)
  Avg YBOCS Scores: 25.43
[3]; Non-Responders, week 2
  % Decrease in YBOCS Scores: 2.93%
[3]; Non-Responders, week 4
  % Decrease in YBOCS Scores: 2.93%
[3]; Non-Responders, week 6
  % Decrease in YBOCS Scores: 2.56%
[3]; Non-Responders, week 8
  % Decrease in YBOCS Scores: 2.2%
[3]; Non-Responders, week 10
  % Decrease in YBOCS Scores: 1.47%
[3]; Non-Responders, week 12
  % Decrease in YBOCS Scores: 2.93%
[3]; Responders, week 2
  % Decrease in YBOCS Scores: 20.06%
[3]; Responders, week 4
  % Decrease in YBOCS Scores: 27.58%
[3]; Responders, week 6
  % Decrease in YBOCS Scores: 32.03%
[3]; Responders, week 8
  % Decrease in YBOCS Scores: 37.05%
[3]; Responders, week 10
  % Decrease in YBOCS Scores: 41.5%
[3]; Responders, week 12
  % Decrease in YBOCS Scores: 44.01%
[3]; Twelve of the 21 patients
  patients experiencing a treatment response in 12 weeks or less: 57%
[3]; after 12 weeks
  difference between YBOCS score at baseline and after 12 weeks, non-responders: 2.9%
  reduction in CGI-I from baseline, responders: 77%
  reduction in YBOCS from baseline, responders: 44%
[3]; all patients
  worsening of YBOCS symptoms during the discontinuation phase: 14.6%
[3]; responders
  worsening of YBOCS symptoms during the discontinuation phase: 38.3%
[3]; eight of 21 patients, 25% improvement in YBOCS, EOT YBOCS <24, CGI-I=1-2
  patients experiencing response within the first 6 weeks: 38%
[3]; [9]
  CGI (mean, SD): 4.63 (0.5)
  YBOCS (mean, SD): 29.56 (4.0)
[3]; end of 6th week, responders (n = 12)
  CGI (mean, SD): 1.92 (0.7)
[3]; end of 6th week, responders (n = 12), added to SRI
  YBOCS (mean, SD): 20.33 (3.8)
[3]; [10]
  CGI (mean, SD): 4.88 (0.4)
  YBOCS (mean, SD): 29.44 (4.8)
[3]; [11]
  CGI (mean, SD): 1.17 (0.4)
  YBOCS (mean, SD): 16.75 (2.7)
[3]; individual patients
  CGI-I Score, 6 Weeks: 2 (7×) and 3 (2×) and 5 (6×) and 1 (3×) and 4 (3×)
  CGI-I Score, 12 Weeks: 1 (10×) and 5 (8×) and 4 and 2 (2×)
[3]; [12]
  YBOCS % Reduction, 6 Weeks: 31.25% and 34.48% and 9.68% and 16.00% and 32.14% and 34.38% and 42.42% and 28.95% and 27.27% and 7.69% and 41.67% and 0.00% (3×) and 5.00% and 37.04% and 19.35% and −3.57% (2×) and 40.74% and 6.06%
  YBOCS % Reduction, 12 Weeks: 34.38% and 41.38% and 9.68% and 44.00% and 42.86% and 50.00% and 51.52% and 44.74% and 42.42% and 11.54% and 45.83% and 13.79% and 2.50% and −6.25% and 48.15% and 38.71% and −7.14% and −3.57% and 44.44% and −3.85% and 9.09%
[3]; [13]
  YBOCS Score, 6 Weeks: 22 and 19 (3×) and 28 and 21 (2×) and 27 and 24 (2×) and 14 and 29 (3×) and 38 and 32 and 17 and 25 and 16 and 26 and 31
  YBOCS Score, 12 Weeks: 21 (2×) and 17 and 28 and 14 (2×) and 16 (3×) and 19 (2×) and 23 and 13 and 25 and 39 and 34 and 30 (2×) and 29 and 15 and 27
[3]; n = 21, 12 weeks
  average reduction in CGI scores for the whole group: 46%
  average reduction in YBOCS-rated symptoms of the whole group: 26.3%
